# System: SK-N-SH human neuroblastoma cells
# Assay: Serum Deprivation/JC-1 Mitochondrial Membrane Potential (MMP) Assay
# Format: cell-based
# Conditions: for JC-1 max % / Emax: percent maximal intensity in JC-1 ratio normalized to peak value for 10 μM dimebolin; for JC-1 max % / Emax / activation at 3 µM: serum deprivation; for EC50: serum deprivation ~18 hours, JC-1 ratio normalized to peak value for 10 μM dimebolin, single curve fit to mean data of n=2-3; for Emax: read-out: JC-1 max %; for activation at 3 µM: single dose 3 μM, JC-1 ratio normalized to peak value for 10 μM dimebolin (n=2-4), read-out: JC-1 max % (@ 3 μM)
# Summary of the method: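 SK-N-SH cells serum-deprived ~18 h with compound, then stained with JC-1 for 40 min at 37 °C; red (560/595 nm) to green (485/535 nm) ratio reports membrane potential. Response normalized to peak from 10 μM dimebolin; EC50 from fit to mean of n=2–3, or single-dose 3 μM; DMSO ≤1%.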
smiles,measurement,setting,value
"Brc1ccc(CN2Cc3ccccc3N3CCN(Cc4ccccc4)CC3C2)cc1 (stereo not drawn) [Example 123, 3-benzyl-6-(4-bromobenzyl)-1,2,3,4,4a,5,6,7-octahydropyrazino[1,2-a][1,4]benzodiazepine]",JC-1 max %,,186%
same,EC50,,3.44 µM
"O=C(CC1CC1)N1Cc2ccccc2N2CCN(Cc3ccccc3)CC2C1 (stereo not drawn) [Example 92, 1-(3-benzyl-1,2,3,4,4a,5-hexahydropyrazino[1,2-a][1,4]benzodiazepin-6(7H)-yl)-2-cyclopropylethanone]",EC50,"Homo sapiens, SK-N-SH, 18 h",2.47 µM
same,Emax,"Homo sapiens, SK-N-SH",174%
"c1ccc(CN2CCN3c4ccccc4CN(CC4CCCC4)CC3C2)cc1 (stereo not drawn) [Example 125, 3-benzyl-6-(cyclopentylmethyl)-1,2,3,4,4a,5,6,7-octahydropyrazino[1,2-a][1,4]benzodiazepine]",EC50,"Homo sapiens, SK-N-SH, 18 h",4.26 µM
same,Emax,"Homo sapiens, SK-N-SH",98%
"c1ccc(CN2CCN3c4ccccc4CN(c4cnccn4)CC3C2)cc1 (stereo not drawn) [Example 11, 3-benzyl-6-(pyrazin-2-yl)-1,2,3,4,4a,5,6,7-octahydropyrazino[1,2-a][1,4]benzodiazepine]",EC50,"Homo sapiens, SK-N-SH, 18 h",5.61 µM
same,Emax,"Homo sapiens, SK-N-SH",122%
"O=C(c1cccnc1)N1Cc2ccccc2N2CCN(Cc3ccccc3)CC2C1 (stereo not drawn) [Example 110, (3-benzyl-1,2,3,4,4a,5-hexahydropyrazino[1,2-a][1,4]benzodiazepin-6(7H)-yl)(pyridin-3-yl)methanone]",activation at 3 µM,Homo sapiens,97%
"Cc1noc(C)c1C(=O)N1Cc2ccccc2N2CCN(Cc3ccccc3)CC2C1 (stereo not drawn) [Example 101, (3-benzyl-1,2,3,4,4a,5-hexahydropyrazino[1,2-a][1,4]benzodiazepin-6(7H)-yl)(3,5-dimethyl-1,2-oxazol-4-yl)methanone]",activation at 3 µM,Homo sapiens,149%
"Cc1cnc(C(=O)N2Cc3ccccc3N3CCN(Cc4ccccc4)CC3C2)cn1 (stereo not drawn) [Example 102, (3-benzyl-1,2,3,4,4a,5-hexahydropyrazino[1,2-a][1,4]benzodiazepin-6(7H)-yl)(5-methylpyrazin-2-yl)methanone]",activation at 3 µM,Homo sapiens,110%
"O=C(c1ccco1)N1Cc2ccccc2N2CCN(Cc3ccccc3)CC2C1 (stereo not drawn) [Example 104, (3-benzyl-1,2,3,4,4a,5-hexahydropyrazino[1,2-a][1,4]benzodiazepin-6(7H)-yl)(2-furyl)methanone]",activation at 3 µM,Homo sapiens,178%
"CC(C)C(=O)N1Cc2ccccc2N2CCN(Cc3ccccc3)CC2C1 (stereo not drawn) [Example 100, 1-(3-benzyl-1,2,3,4,4a,5-hexahydropyrazino[1,2-a][1,4]benzodiazepin-6(7H)-yl)-2-methylpropan-1-one]",activation at 3 µM,Homo sapiens,118%
"O=C(NCCc1cccnc1)N1Cc2ccccc2N2CCN(Cc3ccccc3)CC2C1 (stereo not drawn) [Example 150, 3-benzyl-N-[2-(pyridin-3-yl)ethyl]-1,2,3,4,4a,5-hexahydropyrazino[1,2-a][1,4]benzodiazepine-6(7H)-carboxamide]",activation at 3 µM,Homo sapiens,212%
"Brc1ccc(CN2Cc3ccccc3N3CCN(Cc4ccccc4)CC3C2)cc1 (single isomer, unassigned; (+)) [Example 19, (+)-3-benzyl-6-(4-bromobenzyl)-1,2,3,4,4a,5,6,7-octahydropyrazino[1,2-a][1,4]benzodiazepine]",JC-1 max %,,169%
same,EC50,,1.56 µM
"NCCc1cn(C(=O)N2Cc3ccccc3N3CCN(Cc4ccccc4)CC3C2)cn1 (stereo not drawn) [Example 154, [4-(2-aminoethyl)-1H-imidazol-1-yl](3-benzyl-1,2,3,4,4a,5-hexahydropyrazino[1,2-a][1,4]benzodiazepin-6(7H)-yl)methanone]",activation at 3 µM,Homo sapiens,49%
"O=C(NC1CCC1)N1Cc2ccccc2N2CCN(Cc3ccccc3)CC2C1 (stereo not drawn) [Example 169, 3-benzyl-N-cyclobutyl-1,2,3,4,4a,5-hexahydropyrazino[1,2-a][1,4]benzodiazepine-6(7H)-carboxamide]",EC50,"Homo sapiens, SK-N-SH, 18 h",0.816 µM
same,Emax,"Homo sapiens, SK-N-SH",173%
"c1ccc(CN2CCN3c4ccccc4CN(CC4CCCCC4)CC3C2)cc1 (stereo not drawn) [Example 144, 3-benzyl-6-(cyclohexylmethyl)-1,2,3,4,4a,5,6,7-octahydropyrazino[1,2-a][1,4]benzodiazepine]",EC50,"Homo sapiens, SK-N-SH, 18 h",3.63 µM
same,Emax,"Homo sapiens, SK-N-SH",132%
"N#CCCN(C(=O)N1Cc2ccccc2N2CCN(Cc3ccccc3)CC2C1)C1CC1 (stereo not drawn) [Example 153, 3-benzyl-N-(2-cyanoethyl)-N-cyclopropyl-1,2,3,4,4a,5-hexahydropyrazino[1,2-a][1,4]benzodiazepine-6(7H)-carboxamide]",activation at 3 µM,Homo sapiens,68%
"O=C(c1ccc(F)cc1)N1Cc2ccccc2N2CCN(Cc3ccccc3)CC2C1 (stereo not drawn) [Example 10, (3-benzyl-1,2,3,4,4a,5-hexahydropyrazino[1,2-a][1,4]benzodiazepin-6(7H)-yl)(4-fluorophenyl)methanone]",EC50,"Homo sapiens, SK-N-SH, 18 h",2.74 µM
same,Emax,"Homo sapiens, SK-N-SH",248%
"CC(C)CCN1Cc2ccccc2N2CCN(Cc3ccccc3)CC2C1 (stereo not drawn) [Example 143, 3-benzyl-6-(3-methylbutyl)-1,2,3,4,4a,5,6,7-octahydropyrazino[1,2-a][1,4]benzodiazepine]",activation at 3 µM,Homo sapiens,30%
"Fc1ccc(CN2CCN3c4ncccc4N(C[C@@H]4CCN4)CCC3C2)cc1 (stereo partly drawn) [Example 68, 5-[(2S)-azetidin-2-ylmethyl]-9-(4-fluorobenzyl)-5,6,7,7a,8,9,10,11-octahydropyrazino[1,2-d]pyrido[3,2-b][1,4]diazepine]",EC50,"Homo sapiens, SK-N-SH, 18 h",8.64 µM
same,Emax,"Homo sapiens, SK-N-SH",157%
"CN1CCN2c3ccccc3CN(C(=O)c3ccc(Cl)cc3)CC2C1 (stereo not drawn) [Example 176, (4-chlorophenyl)(3-methyl-1,2,3,4,4a,5-hexahydropyrazino[1,2-a][1,4]benzodiazepin-6(7H)-yl)methanone]",activation at 3 µM,Homo sapiens,40%
"CC(C)(C)OC(=O)N1CCN2c3ccccc3CN(Cc3ccc(Br)cc3)C(=O)C2C1 (stereo not drawn) [Example 67, tert-butyl 6-(4-bromobenzyl)-5-oxo-1,2,4a,5,6,7-hexahydropyrazino[1,2-a][1,4]benzodiazepine-3(4H)-carboxylate]",EC50,"Homo sapiens, SK-N-SH, 18 h",5.06 µM
same,Emax,"Homo sapiens, SK-N-SH",215%
"c1ccc(CN2CCN3c4ccccc4NCCC3C2)cc1 (stereo not drawn) [Example 26, 3-benzyl-1,2,3,4,4a,5,6,7-octahydropyrazino[1,2-a][1,5]benzodiazepine]",EC50,"Homo sapiens, SK-N-SH, 18 h",3.47 µM
same,Emax,"Homo sapiens, SK-N-SH",210%
"COc1cccc(CN2Cc3ccccc3N3CCN(Cc4ccccc4)CC3C2)c1 (stereo not drawn) [Example 135, 3-benzyl-6-(3-methoxybenzyl)-1,2,3,4,4a,5,6,7-octahydropyrazino[1,2-a][1,4]benzodiazepine]",EC50,"Homo sapiens, SK-N-SH, 18 h",4.19 µM
same,Emax,"Homo sapiens, SK-N-SH",154%
"N#Cc1ccc(CN2Cc3ccccc3N3CCN(Cc4ccccc4)CC3C2)cc1 (stereo not drawn) [Example 128, 4-[(3-benzyl-1,2,3,4,4a,5-hexahydropyrazino[1,2-a][1,4]benzodiazepin-6(7H)-yl)methyl]benzonitrile]",EC50,"Homo sapiens, SK-N-SH, 18 h",4.25 µM
same,Emax,"Homo sapiens, SK-N-SH",168%
"c1ccc(CN2CCN3c4ccccc4CN(Cc4ccccn4)CC3C2)cc1 (stereo not drawn) [Example 29, 3-benzyl-6-(pyridin-2-ylmethyl)-1,2,3,4,4a,5,6,7-octahydropyrazino[1,2-a][1,4]benzodiazepine]",EC50,"Homo sapiens, SK-N-SH, 18 h",4.87 µM
same,Emax,"Homo sapiens, SK-N-SH",221%
"COCCN(C)C(=O)N1Cc2ccccc2N2CCN(Cc3ccccc3)CC2C1 (stereo not drawn) [Example 149, 3-benzyl-N-(2-methoxyethyl)-N-methyl-1,2,3,4,4a,5-hexahydropyrazino[1,2-a][1,4]benzodiazepine-6(7H)-carboxamide]",activation at 3 µM,Homo sapiens,218%
"O=C(c1cnccn1)N1Cc2ccccc2N2CCN(Cc3ccccc3)CC2C1 (stereo not drawn) [Example 12, (3-benzyl-1,2,3,4,4a,5-hexahydropyrazino[1,2-a][1,4]benzodiazepin-6(7H)-yl)(pyrazin-2-yl)methanone]",EC50,"Homo sapiens, SK-N-SH, 18 h",1.11 µM
same,Emax,"Homo sapiens, SK-N-SH",198%
"Clc1ccc(CCN2CCC3CN(Cc4ccccc4)CCN3c3ccccc32)cc1 (stereo not drawn) [Example 44, 3-benzyl-7-[2-(4-chlorophenyl)ethyl]-1,2,3,4,4a,5,6,7-octahydropyrazino[1,2-a][1,5]benzodiazepine]",EC50,"Homo sapiens, SK-N-SH, 18 h",3 µM
same,Emax,"Homo sapiens, SK-N-SH",291%
"O=C(c1ccn[nH]1)N1Cc2ccccc2N2CCN(Cc3ccccc3)CC2C1 (stereo not drawn) [Example 86, (3-benzyl-1,2,3,4,4a,5-hexahydropyrazino[1,2-a][1,4]benzodiazepin-6(7H)-yl)(1H-pyrazol-5-yl)methanone]",EC50,"Homo sapiens, SK-N-SH, 18 h",3.14 µM
same,Emax,"Homo sapiens, SK-N-SH",218%
"Fc1ccc(CN2CCN3c4ccccc4CN(Cc4ccc(Br)cc4)C[C@H]3C2)cc1 (single isomer, unassigned) [Example 61]",EC50,"Homo sapiens, SK-N-SH, 18 h",2.57 µM
same,Emax,"Homo sapiens, SK-N-SH",213%
"Clc1ccc(CN2Cc3ccccc3N3CCN(Cc4ccccc4)CC3C2)cc1 (stereo not drawn) [Example 130, 3-benzyl-6-(4-chlorobenzyl)-1,2,3,4,4a,5,6,7-octahydropyrazino[1,2-a][1,4]benzodiazepine]",EC50,"Homo sapiens, SK-N-SH, 18 h",4 µM
same,Emax,"Homo sapiens, SK-N-SH",181%
"Brc1ccc(CN2Cc3ccccc3N3CCN(Cc4ccccc4)CC3C2)nc1 (stereo not drawn) [Example 42, 3-benzyl-6-[(5-bromopyridin-2-yl)methyl]-1,2,3,4,4a,5,6,7-octahydropyrazino[1,2-a][1,4]benzodiazepine]",EC50,"Homo sapiens, SK-N-SH, 18 h",3.09 µM
same,Emax,"Homo sapiens, SK-N-SH",189%
"O=C(N1CCOCC1)N1Cc2ccccc2N2CCN(S(=O)(=O)c3ccccc3)CC2C1 (stereo not drawn) [Example 81, morpholin-4-yl[3-(phenylsulfonyl)-1,2,3,4,4a,5-hexahydropyrazino[1,2-a][1,4]benzodiazepin-6(7H)-yl]methanone]",EC50,"Homo sapiens, SK-N-SH, 18 h",9.92 µM
same,Emax,"Homo sapiens, SK-N-SH",129%
"Clc1cccc(CN2Cc3ccccc3N3CCN(Cc4ccccc4)CC3C2)c1 (stereo not drawn) [Example 140, 3-benzyl-6-(3-chlorobenzyl)-1,2,3,4,4a,5,6,7-octahydropyrazino[1,2-a][1,4]benzodiazepine]",EC50,"Homo sapiens, SK-N-SH, 18 h",3.6 µM
same,Emax,"Homo sapiens, SK-N-SH",189%
"O=C(C1CC1)N1Cc2ccccc2N2CCN(Cc3ccccc3)CC2C1 (stereo not drawn) [Example 112, (3-benzyl-1,2,3,4,4a,5-hexahydropyrazino[1,2-a][1,4]benzodiazepin-6(7H)-yl)(cyclopropyl)methanone]",EC50,"Homo sapiens, SK-N-SH, 18 h",4.67 µM
same,Emax,"Homo sapiens, SK-N-SH",139%

# — patent publication US9133206B2, “Benzodiazepine and pyridodiazepine derivatives” (AbbVie Inc., priority 2010, dated 2015)
